# Tests used:
# Assay in all cases: biochemical
# Parameters in all cases: radiometric methyltransferase selectivity assay with tritiated SAM, per cent activity
# Conditions in all cases: read-out: % of control remaining
# SETD7 = target: T1, SETD7 (Homo sapiens, UniProt Q8WTS6)
# T1 sequence (Q8WTS6 1-366): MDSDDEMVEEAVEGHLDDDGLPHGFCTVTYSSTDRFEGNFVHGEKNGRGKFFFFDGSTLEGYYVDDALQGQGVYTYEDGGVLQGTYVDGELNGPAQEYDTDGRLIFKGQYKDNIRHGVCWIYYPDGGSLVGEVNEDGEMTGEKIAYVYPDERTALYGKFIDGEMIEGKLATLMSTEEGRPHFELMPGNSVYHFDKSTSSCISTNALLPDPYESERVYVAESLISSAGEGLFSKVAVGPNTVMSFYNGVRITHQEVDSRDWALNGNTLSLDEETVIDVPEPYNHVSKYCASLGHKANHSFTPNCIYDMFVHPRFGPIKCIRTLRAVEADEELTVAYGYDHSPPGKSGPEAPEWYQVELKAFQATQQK
# Method: (§1) The methyltransferase selectivity was assessed at two compound concentrations of 1 and 10 μM by radiometric assays using tritiated-SAM. For methyltransferases: MLL1, MLL3, EZH1 (PRC2), and EZH2 (PRC2), G9a, GLP, SUV39H1, SUV39H2, SUV420H1, SUV420H2, SETD2, SETD8, SETDB1, SETD7, PRMT1, PRMT3, PRMT4, PRMT5/ MEP50 complex, PRMT6, PRMT7, PRMT8, PRMT9, PRDM9, SMYD2, SMYD3, DNMT1, and BCDIN3D the incorporation of a tritium-labeled methyl group into biotinylated substrate was monitored using scintillation proximity assay (SPA). Briefly, a 10 μL reaction containing ^3H-SAM and substrate at concentrations close to the apparent Km values for each enzyme (balanced conditions) was prepared. The reactions were quenched with 10 μL of 7.5 M guanidine hydrochloride; 180 μL of 20 mM Tris buffer (pH 8.0) were added, and the mixture was transferred to a 96-well FlashPlate and incubated for 1 h. The counts per minute (CPM) was measured on a TopCount plate reader. The CPM in the absence of compound or enzyme was defined as 100% activity and background (0%), respectively, for each dataset[74]–[76]. Selectivity of SGC8158 against 342 kinases was evaluated in a kinase panel TR-FRET assay at 1 and 0.1 μM compound in duplicates as described before. Briefly, tagged kinases were incubated with compound and staurosporine-based fluorescent probe where the binding was detected using Tb conjugated anti-tag antibody energy transfer to the probe. Excitation wavelength was 337 nm and fluorescent emission signal was measured for Tb (486 nm) and fluorescent probe (BODIPY, 515 nm). Specific and non-specific binding was determined in the absence and presence of unlabeled staurosporine.
# SETDB1 = SETDB1 (Homo sapiens, UniProt Q15047)
# Method: as §1
# NSD2 = target: T2, NSD2 (Homo sapiens, UniProt O96028)
# T2 sequence (O96028 1-1365): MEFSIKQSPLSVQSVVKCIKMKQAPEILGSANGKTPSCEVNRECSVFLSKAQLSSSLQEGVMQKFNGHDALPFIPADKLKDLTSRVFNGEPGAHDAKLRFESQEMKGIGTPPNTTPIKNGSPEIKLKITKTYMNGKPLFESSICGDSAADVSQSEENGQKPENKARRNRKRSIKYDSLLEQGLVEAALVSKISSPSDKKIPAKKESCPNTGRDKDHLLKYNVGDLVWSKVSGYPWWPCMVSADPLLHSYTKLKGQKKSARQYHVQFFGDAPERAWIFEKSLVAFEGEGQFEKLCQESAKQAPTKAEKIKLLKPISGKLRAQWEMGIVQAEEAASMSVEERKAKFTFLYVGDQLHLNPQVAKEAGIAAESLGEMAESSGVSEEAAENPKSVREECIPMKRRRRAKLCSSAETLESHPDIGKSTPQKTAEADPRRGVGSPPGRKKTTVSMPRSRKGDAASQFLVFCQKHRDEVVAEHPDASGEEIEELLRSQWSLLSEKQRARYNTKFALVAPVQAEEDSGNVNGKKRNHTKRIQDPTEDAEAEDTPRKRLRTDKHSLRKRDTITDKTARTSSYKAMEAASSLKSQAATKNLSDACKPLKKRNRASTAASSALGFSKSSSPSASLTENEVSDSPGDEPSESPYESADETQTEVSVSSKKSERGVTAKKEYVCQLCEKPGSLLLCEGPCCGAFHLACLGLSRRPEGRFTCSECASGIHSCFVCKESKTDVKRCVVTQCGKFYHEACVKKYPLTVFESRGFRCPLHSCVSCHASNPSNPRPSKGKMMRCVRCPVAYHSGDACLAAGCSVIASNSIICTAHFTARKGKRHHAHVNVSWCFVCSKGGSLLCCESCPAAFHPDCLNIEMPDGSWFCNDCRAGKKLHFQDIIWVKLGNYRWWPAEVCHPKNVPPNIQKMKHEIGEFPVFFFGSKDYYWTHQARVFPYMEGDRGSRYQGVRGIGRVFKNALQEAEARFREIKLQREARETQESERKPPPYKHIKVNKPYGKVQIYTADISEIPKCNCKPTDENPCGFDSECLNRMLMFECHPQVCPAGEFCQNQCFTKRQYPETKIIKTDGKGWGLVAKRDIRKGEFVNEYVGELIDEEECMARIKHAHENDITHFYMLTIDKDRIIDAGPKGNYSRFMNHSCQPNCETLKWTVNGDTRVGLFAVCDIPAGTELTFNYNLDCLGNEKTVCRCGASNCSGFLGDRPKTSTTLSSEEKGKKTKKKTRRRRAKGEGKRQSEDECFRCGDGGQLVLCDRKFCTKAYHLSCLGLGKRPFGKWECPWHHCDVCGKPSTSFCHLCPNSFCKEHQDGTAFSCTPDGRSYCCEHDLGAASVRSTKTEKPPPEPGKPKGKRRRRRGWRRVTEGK
# Method: as §1
Structure (SMILES),remaining activity at 1 µM (SETD7) [%],remaining activity at 10 µM (SETD7) [%],remaining activity at 1 µM (SETDB1) [%],remaining activity at 10 µM (SETDB1) [%],remaining activity at 1 µM (NSD2) [%],remaining activity at 10 µM (NSD2) [%]
CC1(C)O[C@@H]2[C@H](O1)[C@@H](CSCCCCNCc1cccc(-c3ccc(Cl)cc3)c1)O[C@H]2n1cnc2c(N)ncnc21 [SGC8158N],96,89,99,91,92,97
Nc1ncnc2c1ncn2[C@@H]1O[C@H](CSCCCCNCc2cccc(-c3ccc(Cl)cc3)c2)[C@@H](O)[C@H]1O [SGC8158],100,100,103,99,106,101

# From PMC7224190, “Pharmacological inhibition of PRMT7 links arginine monomethylation to the cellular stress response” (Nature Communications, 2020)
